Experimental findings from patent US20120035557A1, “Personal Care Compositions Comprising A Multi-Active System For Down Regulating Cytokines Irritation” (priority 2010, published 2012) are described below.

The subject of this experiment is IL-1α (cytokine expression in hTERT keratinocytes). The experiment in a line: In vitro assay: IL-1α in supernatants of IL-1β-treated hTERT keratinocytes (sandwich immunoassay, indexed to ATP viability). The experiment is classed as cell-based, human. To be noted: for Avg IL-1α measurement: hTERT keratinocytes, 18 hrs, 6 replicates; for IL-1α reduction compared in words (significance groupings): 500 ppm, IL-1β treated hTERT keratinocytes, >95% confidence. How it is done: The following in vitro assay test was conducted to determine the effect of White Tea Extract, Panthenol and Glycyrrhizinate salt on cytokine expression in hTERT keratinocytes:
BACKGROUND: hTERT-keratinocytes are a telomerase-immortalized neonatal epidermal keratinocyte line. Cell cultures of this type are known in the literature and have been used as models for multiple pathways as shown in the following references: Shay and Wright; Carcinogenesis, vol 26; no 5, pp 867-74, 2005; Bodner, et. al., Science, vol 279 pp 349-52, 1998; Ramirez, et. al., Oncogene, 22; pp 433-44, 2002. These cells display many features characteristic of normal primary keratinocytes and respond to normal growth controls in vitro.
TEST PROTOCOL: all measures were run in replicate (n=6).
To ensure proper levels of the biological active molecules for the in vitro study, dilution studies are conducted and ATP is analyzed for the highest non-cytotoxic concentration. White Tea Extract (H1615 WS, lot 98680094S-005) at a level of 500 ppm, Panthenol (lot 10063909S-018) at a level of 500 ppm, and Glycyrrhizinate salt (Barnet 25908N297) at a level of 500 ppm are used for this study. ATP analysis is described below.
ATP analysis is conducted using Cell Titer-Glo. The CellTiter-Glo Luminescent Cell Viability Assay is obtained from Promega Corporation (Madison, Wis.). This assay is a homogeneous method for determining the number of viable cells in culture based on quantitation of ATP present, signaling the presence of metabolically active cells. After the final treatment and supernatants collected, the CellTiter-Glo reagent is added. The reagent is then transferred to a BD Falcon (Franklin Lakes, N.J.) Microtest 96-well Assay Plate (black, flat bottom, reference 353945, lot 041151). Luminescence is read on a Perkin Elmer Fluorimeter (Wallac Envision 2101 Multilabel Reader). Relative luminescence units are plotted in percent control versus treatment concentration.
hTERT cells are cultured in complete EpiLife (Cascade Biologics, Portland, Oreg.) culture media in T75 culture flasks (Falcon, Becton Dickinson Labware, Franklin Lakes, N.J.) under 37° C./5% CO2 conditions. […] 2 ml of the cell suspension (density 20,000/cm^2) are plated in each well of a 6-well culture dish (Falcon) and cultured under 37° C./5% CO2 conditions overnight. A complete media exchange is performed and the cells are again cultured overnight under 37° C./5% CO2 conditions. The culture media is removed and 2 ml of treatment are placed in each well and the cells are cultured for 18 hrs. For all legs other than Control, IL-1β is added to the treatment at 1 nanogram per mL (for 2 nanograms per treatment). After the treatment period, the cell culture supernatants are collected and analyzed immediately for Interleukin-1α with an R&D Systems (Minneapolis, Minn.) kit which deploys the quantitative sandwich immunoassay technique. ATP is measured from cell lysates an indicator of viability. IL-1α is indexed to cell viability to ensure a proper reading of actual activity.
TESTING: This test was conducted and the analysis of the data is as follows. Statistical differences among treatments for IL-1α were analyzed via JMP using a log-transform before the analysis of variance. The log-transform ensures that the response data are normally distributed and have equal variance. […]

The mark [1] stands for this setting: 500 ppm ingredient + IL-1β 1 nanogram per mL, IL-1α indexed to cell viability.

Counter-ions that a name gives are not always drawn.

For `C[C@H]1C[C@H]2[C@@H]3CCC4=CC(=O)C=C[C@]4(C)[C@@]3(F)[C@@H](O)C[C@]2(C)[C@@]1(O)C(=O)CCl` [Clobetasol, reference compound], the “Avg IL-1α measurement” value (4.5 ppm + IL-1β, positive control) was 14.29.

With `CC1(C)[C@@H](O[C@H]2O[C@H](C(=O)O)[C@@H](O)[C@H](O)[C@H]2O[C@H]2O[C@@H](C(=O)O)[C@H](O)[C@@H](O)[C@@H]2O)CC[C@]2(C)[C@H]3C(=O)C=C4[C@@H]5C[C@@](C)(C(=O)O)CC[C@]5(C)CC[C@@]4(C)[C@]3(C)CC[C@@H]12` [Glycyrrhizinate salt], the “IL-1α reduction compared in words (significance groupings)” value was “slightly higher IL-1α reduction”. Also, under setting [1], the “Avg IL-1α measurement” value was 17.57. Regarding `CC(C)(CO)[C@@H](O)C(=O)NCCCO` [Panthenol], the “IL-1α reduction compared in words (significance groupings)” value is recorded as “not significantly different than the IL-1β treated cells”. In addition, the “Avg IL-1α measurement” value under setting [1] came out at 24.41.
